This note sets out measurements from patent US9302993B2, “8-hydroxy quinoline derivatives” (PRANA BIOTECHNOLOGY LIMITED, priority 2002, dated 2016).

Where “and” joins values, the source holds several entries; their conditions need not be identical. Equal values may be shown once. A value given as a limit tells only on which side of the number the result lay.

The first data set deals with Neuronal cortical cells. Nature of the data set: Assay for test compound cytoxicity, MTS (Assay 3(d)). In kind it is cell-based, mouse. The conditions noted are these: BL6J×129sv, mouse, 4 days, 10 uM. As for the experimental part:
Media was then replaced with Neurobasal media (Invitrogen Life Technologies) and B27 supplements (Invitrogen Life Technologies). Cultures were maintained at 37° C. in 5% CO2. Prior to experimentation, the culture medium was replaced with Neurobasal media and B27 minus antioxidants (Invitrogen Life Technologies).
Cell viability is determined using the MTS assay. Culture medium is […] replaced with fresh neurobasal medium plus B27 supplements minus antioxidants. 1/10th volume MTS solution (Cell Titre 96 Aqueous One, Promega Corporation) and incubated at 37° C., 2 hrs. 200 microliter aliquots are measured with a spectrophotometer at 560 nm.
(d) Assay for Test Compound Cytoxicity
Neuronal cortical cells were cultured for five days as per Assay 2 in NB media and B27 supplement.
On day six the test compounds were added to the neuronal cell cultures in NB media and B27 supplement minus antioxidants.
Test compounds were dissolved in 100% DMSO to a concentration of 2.5 mM (10 mM if excess compound was weighed out per vial—then diluted to 2.5 mM). […] Test compounds were not added directly to cells, instead they were added to a 48 well ‘Drug Plate’ as comprised below:
The Drug Plate was incubated at 37° C. for 15 mins. 200 ul of each well was added in triplicate to the corresponding cell plate. The cell plate was incubated at 37 C, for 4 days.
On completion of the assay, 1/10 volume MTS was added per well of plate (ie 25 ul/250 ul). The plates were incubated at 37 C for 2 hrs, and then absorbance was read at 560 nm.
For `COc1ccc(-c2cc(Cl)c3cccnc3c2O)cc1` [compound 814], the “Viable 10 uM” value turned out to be 31.13.

The target of the next data set is T1, hydrogen peroxide generation by Aβ in the presence of copper (Homo sapiens, UniProt P05067).
T1 construct: The reaction solutions contained Aβ 1-42 at concentrations in the range of 50 nM to 1 μM
T1 sequence (P05067 672-713 limits assumed): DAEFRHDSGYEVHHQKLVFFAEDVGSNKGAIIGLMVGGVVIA
Kind of data set: Fluorometric H2O2 assay (Assay 1). In kind it is biochemical. As to conditions: Aβ 1-42 with Cu-Gly, DCF/HRP, 37 C 60 min; several values in one cell = repeat determinations; read-out: Peroxide IC50. The protocol: Assay 1. Fluorometric H2O2 Assay
A fluorometric assay was used to test the ability of a test compound to inhibit hydrogen peroxide generation by Aβ in the presence of copper based on dichlorofluoroscein diacetate (DCF; Molecular Probes, Eugene Oreg.). The DCF solution (5 mM) in 100% dimethyl sulphoxide (previously purged with argon for 2 hr at 20° C.) was deacetylated in the presence of 0.25M NaOH for 30 min and neutralised at pH 7.4 to a final concentration of 1 mM. Horseradish peroxidase (HRP) stock solution was prepared to 1 μM at pH 7.4. The reactions were carried out in PBS, pH 7.4 in a 96 well plate (total volume=250 μl/well). The reaction solutions contained Aβ 1-42 at concentrations in the range of 50 nM to 1 μM, copper-glycine chelate (Cu-Gly), was prepared by adding CuCl2 to glycine in the ratio of 1:6 and added to the Aβ in the proportion 2Cu-Gly: 1Aβ), reducing agents including dopamine (5 μM) or ascorbic acid, deacetylated DCF 100 μM, and HRP, 0.1 μM. […] The reaction mixture was incubated at 37 C for 60 min. […] H2O2 concentration may be established by comparing fluorescence with the H2O2 standards. Inhibition of AB H2O2 production was assayed by including a given concentration of test compound(s) in the test wells.
In general, IC50 refers to the midpoint of a concentration-inhibition curve. In the case of `O=C(O)C1OC(Oc2cccc3cccnc23)[C@H](O)[C@@H](O)[C@H]1O` (some centres unmarked) [compound 39], the IC50 worked out at 90 µM.

On to `O=S(=O)(O)c1ccc2cccc(O)c2n1` [compound 50], for which the concentration for half-maximal inhibition (IC50) came out at 90 µM.

With `O=C(O)c1ccc2cccc(O)c2n1` [compound 57], the IC50 came to 40 µM.

`OCC1OC(Oc2cccc3cccnc23)[C@H](O)[C@@H](O)[C@H]1O` (some centres unmarked) [compound 62]: the IC50 was over 10 µM.

Take `Oc1ccc(CCc2ccc3cccc(O)c3n2)cc1` [compound 91]: the IC50 is 50 µM and > 10 µM.

For the compound `COc1ccc(-c2cc(Cl)c3cccnc3c2OC(C)C)cc1` [compound 800], the IC50 was over 10 µM.

For `COc1cccc(-c2cc(Cl)c3cccnc3c2OC(C)C)c1` [compound 801], the half-maximal inhibitory concentration (IC50) is over 10 µM.

For the compound `CC(C)Oc1c(-c2ccc(F)cc2)cc(Cl)c2cccnc12` [compound 802], the half-maximal inhibitory concentration (IC50) is over 10 µM.

As for `CC(C)Oc1c(-c2ccccc2F)cc(Cl)c2cccnc12` [compound 803], the IC50 is over 10 µM.

In the case of `CC(C)Oc1c(I)cc(Cl)c2cccnc12` [compound 804], the IC50 is over 10 µM.

As for `Cc1ccccc1-c1cc(Cl)c2c(-c3ccccc3C)ccnc2c1OC(C)C` [compound 805], the concentration for half-maximal inhibition (IC50) is over 10 µM.

`CC(C)Oc1c(I)cc(I)c2cccnc12` [compound 807]: the IC50 is over 10 µM.

For `CC(C)Oc1c(F)cc(-c2ccccc2)c2cccnc12` [compound 816], the IC50 is over 10 µM.

For `CC(C)Oc1c(F)cc(-c2cc(F)cc(F)c2)c2cccnc12` [compound 817], the IC50 is over 10 µM.

As to `CC(C)Oc1c(-c2ccccc2)cc(Cl)c2cccnc12` [compound 818], the half-maximal inhibitory concentration (IC50) is over 10 µM.

`COc1ccccc1-c1cc(Cl)c2cccnc2c1OC(C)C` [compound 819]: the half-inhibitory concentration (IC50) was over 10 µM.

In the case of `CC(C)Oc1c(-c2cc(F)cc(F)c2)cc(Cl)c2cccnc12` [compound 820], the IC50 is over 10 µM.

In the case of `Brc1ccc(OCc2ccccc2)c2ncccc12` [compound 821], the concentration for half-maximal inhibition (IC50) is over 10 µM.

`CC(=O)Oc1ccc(-c2cc(Cl)c3cccnc3c2OC(C)C)s1` [compound 822]: the half-maximal inhibitory concentration (IC50) was over 10 µM.

Take `CC(C)Oc1c(I)cc(-c2ccc(C(F)(F)F)cc2)c2cccnc12` [compound 823]: the IC50 was over 10 µM.

For the compound `COc1ccccc1-c1cc(-c2ccccc2OC)c2cccnc2c1OC(C)C` [compound 824], the IC50 was over 10 µM.

With `COc1ccccc1-c1cc(I)c(OC(C)C)c2ncccc12` [compound 825], the IC50 is over 10 µM.

Turning to `Cc1ccccc1-c1cc(I)c(OC(C)C)c2ncccc12` [compound 826], the IC50 was over 10 µM.

For `CC(C)Oc1c(-c2ccccc2C(F)(F)F)cc(Cl)c2cccnc12` [compound 827], the IC50 is over 10 µM.

`c1ccc(COc2cccc3cccnc23)cc1` [compound 855]: the IC50 was over 10 µM.

Consider `CC(C)Oc1c(I)cc(-c2ccccc2F)c2cccnc12` [compound 856], for which the IC50 was over 10 µM.

`CC(C)Oc1c(-c2cccc([N+](=O)[O-])c2)cc(Cl)c2cccnc12` [compound 857]: the 50% inhibitory concentration (IC50) was over 10 µM.

For `CC(C)Oc1c(-c2cccc(F)c2)cc(Cl)c2cccnc12` [compound 858], the half-inhibitory concentration (IC50) is over 10 µM.

On to `Cc1ccccc1-c1cc(Cl)c2cccnc2c1OC(C)C` [compound 866], for which the concentration for half-maximal inhibition (IC50) was over 10 µM.

Turning to `CC(C)Oc1c(-c2ccccc2C=O)cc(Cl)c2cccnc12` [compound 867], the IC50 was over 10 µM.

Regarding `CC(C)Oc1c(-c2ccc(N(C)C)cc2)cc(Cl)c2cccnc12` [compound 868], the half-maximal inhibitory concentration (IC50) is over 10 µM.

As to `Oc1cccc2ccc(-n3cccn3)nc12` [compound 964, 2-pyrazol-1-yl-quinolin-8-ol], the IC50 is 7.1 µM.

`Oc1cccc2ccc(-n3ccnc3)nc12` [compound 965]: the IC50 was over 10 µM.

Staying with this data set, now noted: Peroxide IC50, Aβ 1-42 with Cu-Gly, DCF/HRP, 37 C 60 min; several values in one cell = repeat determinations.
As to `O=C(O)c1cc(O)c2cccc(O)c2n1` [compound 52], the IC50 is over 100 µM.
